Results as given in PMC3465347, “Regulation of NF-κB Activation through a Novel PI-3K-Independent and PKA/Akt-Dependent Pathway in Human Umbilical Vein Endothelial Cells” (PLoS ONE, 2012).
Entries after “also recorded” stand apart in the source; their conditions may differ.

What was measured:
[1] = test system: NF-κB DNA-binding activity in HUVECs; assay: NF-κB activation assay (EMSA) in nuclear extracts; assay type: cell-based, human
Experimental: (§1) The endothelial cells were subjected to the indicated treatments followed by induction with TNF-α for indicated time points or 30 mins. The cells were then washed with PBS and dislodged using a cell scraper. The cytoplasmic and nuclear extracts were prepared as described previously, [46].
NF-κB activation in the nuclear extracts of human endothelial cells was assessed by electrophoretic mobility shift assay (EMSA) as described previously, [46]. For supershift experiment, nuclear extracts prepared from unstimulated and TNF-α-stimulated cells were incubated with antibodies against the p50 or p65 subunit of NF-κB or -α-tubulin for 15 mins at 37°C before the complex was analyzed by EMSA. Addition of equal amount of radioactive-labelled probe to all the samples was indicated by the similar intensity of the unincorporated probe observed towards the end of the gel.

[2] = test system: NF-κBp65 subunit translocation in HUVECs; assay: NF-κB p65 nuclear translocation (western blot, immunocytochemistry); assay type: cell-based, human; details: 400 µM, TNF-α-induced
Experimental: as §1
To study the effect of MPTAG on nuclear translocation of NF-κBp65 subunit in presence of TNF-α-stimulation, the HUVECs were seeded on gelatinized glass bottom 6-well plate at a cell density of 0.3×10^6 cells/ml. Following day, media was changed and MPTAG was added to the cells for 2 h. After the end of drug pretreatment, cells were induced with TNF-α for 45 mins. The cell monolayers were washed with PBS (phosphate buffered saline containing 1 mM CaCl2 and 1 mM MgCl2) and were fixed in a solution, containing 4% paraformaldehyde in 120 mM sodium phosphate buffer pH 7.2–7.4, for 20 mins at room temperature. The cells were then permeabilized using a high salt buffer, containing 0.45 M NaCl and 20 mM sodium phosphate buffer pH 7.2–7.4, 0.3% Triton X-100 and 0.2% gelatin, for 1 h at room temperature. Following this, the cells were incubated with anti-NF-κBp65 antibody for 2 h at room temperature. […] The fluorescent signals were then quantitated by selecting the nuclear and cytoplasmic regions in different fields using the NTS imaging software. […]

[3] = target: T1, IKK-β (Homo sapiens, UniProt O14920); assay: Direct IKK-β kinase assay on immunoprecipitated IKK-β; assay type: biochemical; details: immunoprecipitated IKK-β incubated with MPTAG
T1 construct: Endogenous IKK complexes were immunoprecipitated in the following reaction mixtures; endogenous in cells; host or cells: HUVEC (uninduced and TNF-α-induced), anti-IKK-β immunoprecipitate
T1 sequence (O14920 whole entry): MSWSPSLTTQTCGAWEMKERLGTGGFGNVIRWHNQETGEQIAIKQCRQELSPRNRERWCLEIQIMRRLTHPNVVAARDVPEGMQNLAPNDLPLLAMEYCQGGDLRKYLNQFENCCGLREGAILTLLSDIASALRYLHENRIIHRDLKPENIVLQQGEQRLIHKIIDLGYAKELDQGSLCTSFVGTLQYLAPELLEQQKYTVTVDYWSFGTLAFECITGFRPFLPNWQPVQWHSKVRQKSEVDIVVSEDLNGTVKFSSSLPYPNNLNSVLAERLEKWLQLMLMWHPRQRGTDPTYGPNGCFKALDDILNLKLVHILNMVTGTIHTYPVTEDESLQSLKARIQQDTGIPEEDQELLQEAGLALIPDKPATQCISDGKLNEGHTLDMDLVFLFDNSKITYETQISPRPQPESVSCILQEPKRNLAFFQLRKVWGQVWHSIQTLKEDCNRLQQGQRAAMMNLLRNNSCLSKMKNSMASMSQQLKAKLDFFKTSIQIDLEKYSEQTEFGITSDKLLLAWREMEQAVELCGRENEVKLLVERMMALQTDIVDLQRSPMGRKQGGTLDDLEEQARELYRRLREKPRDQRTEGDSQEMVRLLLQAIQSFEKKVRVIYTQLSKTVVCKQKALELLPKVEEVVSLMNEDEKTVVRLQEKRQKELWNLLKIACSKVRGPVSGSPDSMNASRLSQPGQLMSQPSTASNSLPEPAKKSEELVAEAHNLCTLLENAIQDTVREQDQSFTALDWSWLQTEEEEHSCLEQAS
Experimental: (§2) In brief, confluent HUVECs were incubated with or without MPTAG and were stimulated with TNF-α (10 ng/ml) for 15 mins. The cells were washed and lysed in Lysis buffer containing 50 mM HEPES, pH 7.6, 10% glycerol, 1 mM sodium orthovanadate, 100 mM NaCl, 1% NP-40, 1 mM EDTA and protease inhibitor cocktail and allowed to swell on ice for 45 mins. Following centrifugation at 13,000 rpm for 45 mins, the supernatants were collected as “total cell extracts” and stored at −70°C. Immunoprecipitation was performed as per the instructions of Protein G immunoprecipitation kit (Sigma Aldrich, USA). Endogenous IKK complexes were immunoprecipitated in the following reaction mixtures: 100–300 µg of total cell extracts were incubated with 2–4 µg anti-IKK-β or PKAα antibody in 100 µl 1× IP buffer. After incubation for 16 h at 4°C with constant shaking, 50 µl of activated protein G beads were added and the mixture was incubated under rotation for an additional 3 h at 4°C.
Kinase assay was performed as previously described. Immunoprecipitates from 100 µg of total cell extracts were used for kinase assays. The reaction mixture consisted of kinase buffer (20 mM Tris Cl, pH 7.6, 1 mM EDTA, 1 mM sodium orthovanadate, 20 mM MgCl2, 2 mM DTT), 2 µg GST-IκBα(1–54), 5 µM ATP and 1 µCi [γ ^32P] ATP in a volume of 30 µl. […]

[4] = test system: Akt phosphorylation in HUVECs; assay: Akt phosphorylation western blot; assay type: cell-based, human
Experimental: (§3) Nuclear and cytoplasmic extracts were fractionated on SDS-PAGE with equal amount of proteins per well and transferred onto PVDF membranes and those membranes were incubated with appropriate primary antibodies and treated with HRP conjugated secondary antibodies followed by detection with DAB-H2O2 system. β-tubulin, α-actin and Lamin B1 were used as loading controls. Antibodies against NF-κBp65, phosphoNF-κBp65, IκBα, phosphoIκBα, IKK-β, Akt, phosphoAkt (Ser473) and phosphoAkt (Thr308) were used.

[5] = test system: association of Akt with IKK-β; assay: Akt/IKK-β association (co-immunoprecipitation); assay type: cell-based, human; details: dose-dependent and time-dependent
Experimental: as §2
as §3, with “Antibodies against NF-κBp65, phosphoNF-κBp65, IκBα, phosphoIκBα, IKK-β, Akt, phosphoAkt (Ser473) and phosphoAkt (Thr308) were used.” left out

[6] = test system: PI-3K; assay: PI-3K activity assay; assay type: cell-based, human; details: pretreatment, HUVECs
Description: The catalytic domain of PI-3K was immunoprecipitated from the stimulated and unstimulated endothelial in presence and absence of various compound treatment using an anti-p85α (N-18) antibody. The immunoprecipated proteins were subjected to kinase activity assay using a PI substrate, diC8 followed by detection of the PI(3)P as per the instructions of the Class III PI-3kinase kit (Echelon, USA).

[7] = target: T2, PKA (Homo sapiens, UniProt P17612); assay: PKA activity assay; assay type: cell-based
T2 construct: PKA was immunoprecipitated from the total cell lysates of unstimulated and TNF-α-stimulated endothelial cells; endogenous in cells; host or cells: HUVEC (treated with MPTAG, SQ 22536, H-89 ± TNF-α), anti-PKAα immunoprecipitate
Description: PKA was immunoprecipitated from the total cell lysates of unstimulated and TNF-α-stimulated endothelial cells in presence and absence of treatment with agents indicated in Figure 7 using anti-PKAα (W-18) antibody. The immunoprecipates were subjected to kinase activity assay using a Bisamide Rhodamine 110 peptide substrate as per the instructions of the Profluor PKA assay kit (Promega, USA).

## CC(=O)OC[C@H]1O[C@@H](Oc2c(C)occc2=O)[C@H](OC(C)=O)[C@@H](OC(C)=O)[C@@H]1OC(C)=O [MPTAG, 2-methyl-pyran-4-one-3-O-β-D-2′,3′,4′,6′-tetra-O-acetyl glucopyranoside]
[1]; H-89 then MPTAG, TNF-α
  TNF-α-induced NF-κB activation (EMSA), H-89 treatment preceding MPTAG: remained increased
[1]; MPTAG 400 µM, dose-dependent
  TNF-α-induced NF-κB DNA-binding activity / NF-κB activation (EMSA): almost complete inhibition; also recorded: significantly inhibited
[1]; MPTAG then H-89, TNF-α
  TNF-α-induced NF-κB activation (EMSA), MPTAG treatment preceding H-89: inhibited
[1]; without TNF-α stimulation
  basal NF-κB activation: no significant inhibitory effect
[1]; wortmannin before MPTAG, then TNF-α
  TNF-α-induced NF-κB activation (EMSA) in presence or absence of wortmannin: inhibited similarly
[2]
  translocation of NF-κBp65 subunit into the nucleus: prevented the translocation
[3]
  activity of IKK-β by direct interaction: did not affect
[4]; 400 µM
  protein levels of Akt: without affecting
[4]; H-89 added prior to MPTAG
  inhibitory effect of MPTAG on TNF-α-induced Akt phosphorylation when H-89 added prior: completely abolished
[4]; MPTAG 400 µM, TNF-α 30 mins
  TNF-α-induced phosphorylation of Akt at Ser473: inhibited
  TNF-α-induced phosphorylation of Akt at Thr308: inhibited
[4]; with or without wortmannin before MPTAG
  TNF-α-induced Akt phosphorylation (Thr308), independently of wortmannin: dose-dependently inhibited
[5]
  TNF-α-induced association of Akt with IKK-β: significantly prevented
[6]
  TNF-α-induced PI-3K activity: no effect
[7]; MPTAG + SQ 22536
  PKA activity in unstimulated HUVECs, MPTAG and SQ 22536 added together: remained increased
[7]; MPTAG alone or together with SQ 22536
  PKA activity in TNF-α-stimulated HUVECs: restored PKA activity
